The values that follow come from patent US20050170393A1, “OATPB transporters expressed in blood brain barrier cells” (Xenoport, Inc., priority 2004, published 2005).

The target in data set [1] is T1, OATPB (Homo sapiens, UniProt O94956).
T1 sequence (O94956 1-709): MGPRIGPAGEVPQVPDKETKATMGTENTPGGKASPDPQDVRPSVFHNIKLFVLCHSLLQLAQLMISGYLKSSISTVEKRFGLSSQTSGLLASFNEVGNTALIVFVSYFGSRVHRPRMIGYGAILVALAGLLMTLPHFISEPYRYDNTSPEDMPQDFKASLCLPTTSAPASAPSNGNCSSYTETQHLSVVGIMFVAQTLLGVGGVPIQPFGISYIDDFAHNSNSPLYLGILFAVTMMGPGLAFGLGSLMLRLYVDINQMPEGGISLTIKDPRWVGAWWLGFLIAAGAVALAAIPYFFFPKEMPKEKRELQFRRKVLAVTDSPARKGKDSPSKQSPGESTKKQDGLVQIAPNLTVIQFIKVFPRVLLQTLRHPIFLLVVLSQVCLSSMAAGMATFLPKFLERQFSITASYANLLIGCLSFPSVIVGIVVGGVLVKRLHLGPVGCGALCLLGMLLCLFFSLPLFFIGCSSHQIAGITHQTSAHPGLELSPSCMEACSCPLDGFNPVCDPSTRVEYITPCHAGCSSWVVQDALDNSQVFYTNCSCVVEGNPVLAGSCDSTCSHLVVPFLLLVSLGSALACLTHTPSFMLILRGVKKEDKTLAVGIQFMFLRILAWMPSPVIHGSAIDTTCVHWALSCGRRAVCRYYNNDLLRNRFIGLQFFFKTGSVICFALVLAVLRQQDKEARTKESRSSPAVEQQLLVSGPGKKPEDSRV
Description: ^3H-estrone sulfate uptake into oocytes injected with OATPB cRNA. Format: cell-based. The settings on record: oocytes expressing OATPB versus noninjected controls (FIG. 2). Also on record: expressed in transfected cells; host or cells: Xenopus oocytes injected with OATPB cRNA.

Data set [2] has as its target T1, OATPB. The settings on record: cited from earlier work.
Data set [3] concerns the target T2, OATPB transporter (Homo sapiens, UniProt O94956).
T2 construct: expressed in transfected cells
T2 sequence (O94956 1-709): T1 sequence (O94956 1-709)
Description: Direct uptake assay in tet-induced and non-induced OATPB-HEK/TREx cells (LC-MS-MS). Particulars: 125, 250, 500 or 1000 μM, 20 minutes at room temperature, with and without tetracycline (FIG. 7). The data set is classed as cell-based. The source says:
To increase the throughput of OATPB compound screening, a mammalian cell assay was developed using an inducible expression system. OATPB was subcloned into a plasmid that allows for inducible expression by tetracycline (TREx plasmid, Invitrogen Inc. Carlsbad Calif.). The OATPB-HEK plasmid was […] transfected into a HEK cell line engineered for tetracycline-inducible expression (HEK-TREx, Invitrogen) and stable clones were isolated by G418 selection and […] (FACS).
In order to measure whether test compounds are actively translocated across the membrane, and to determine the maximal transport rate, a direct uptake method can be used in which transport of a test compound is measured by mass spectroscopy. For direct uptake measurements using mass spectroscopy, OATPB-HEK/TREx cells can be prepared similarly to those used for competition studies (described above). […] The supernatant is analyzed by LC-MS-MS. As a negative control, uptake is measured in cells not treated with tetracycline, or by competition with another substrate such as estrone-3-sulfate or bromosulphophthalein (3 mM).
The uptake of PGFα by OATPB-HEK/TREx cells was measured as described in Example 3. […] The supernatant was analyzed by LC-MS-MS. As a negative control, uptake was measured in cells not treated with tetracycline.

The target in data set [4] is T3, PgP (Homo sapiens, UniProt P08183).
T3 construct: expressed in transfected cells; host or cells: MDCK cells
T3 sequence (P08183 whole entry): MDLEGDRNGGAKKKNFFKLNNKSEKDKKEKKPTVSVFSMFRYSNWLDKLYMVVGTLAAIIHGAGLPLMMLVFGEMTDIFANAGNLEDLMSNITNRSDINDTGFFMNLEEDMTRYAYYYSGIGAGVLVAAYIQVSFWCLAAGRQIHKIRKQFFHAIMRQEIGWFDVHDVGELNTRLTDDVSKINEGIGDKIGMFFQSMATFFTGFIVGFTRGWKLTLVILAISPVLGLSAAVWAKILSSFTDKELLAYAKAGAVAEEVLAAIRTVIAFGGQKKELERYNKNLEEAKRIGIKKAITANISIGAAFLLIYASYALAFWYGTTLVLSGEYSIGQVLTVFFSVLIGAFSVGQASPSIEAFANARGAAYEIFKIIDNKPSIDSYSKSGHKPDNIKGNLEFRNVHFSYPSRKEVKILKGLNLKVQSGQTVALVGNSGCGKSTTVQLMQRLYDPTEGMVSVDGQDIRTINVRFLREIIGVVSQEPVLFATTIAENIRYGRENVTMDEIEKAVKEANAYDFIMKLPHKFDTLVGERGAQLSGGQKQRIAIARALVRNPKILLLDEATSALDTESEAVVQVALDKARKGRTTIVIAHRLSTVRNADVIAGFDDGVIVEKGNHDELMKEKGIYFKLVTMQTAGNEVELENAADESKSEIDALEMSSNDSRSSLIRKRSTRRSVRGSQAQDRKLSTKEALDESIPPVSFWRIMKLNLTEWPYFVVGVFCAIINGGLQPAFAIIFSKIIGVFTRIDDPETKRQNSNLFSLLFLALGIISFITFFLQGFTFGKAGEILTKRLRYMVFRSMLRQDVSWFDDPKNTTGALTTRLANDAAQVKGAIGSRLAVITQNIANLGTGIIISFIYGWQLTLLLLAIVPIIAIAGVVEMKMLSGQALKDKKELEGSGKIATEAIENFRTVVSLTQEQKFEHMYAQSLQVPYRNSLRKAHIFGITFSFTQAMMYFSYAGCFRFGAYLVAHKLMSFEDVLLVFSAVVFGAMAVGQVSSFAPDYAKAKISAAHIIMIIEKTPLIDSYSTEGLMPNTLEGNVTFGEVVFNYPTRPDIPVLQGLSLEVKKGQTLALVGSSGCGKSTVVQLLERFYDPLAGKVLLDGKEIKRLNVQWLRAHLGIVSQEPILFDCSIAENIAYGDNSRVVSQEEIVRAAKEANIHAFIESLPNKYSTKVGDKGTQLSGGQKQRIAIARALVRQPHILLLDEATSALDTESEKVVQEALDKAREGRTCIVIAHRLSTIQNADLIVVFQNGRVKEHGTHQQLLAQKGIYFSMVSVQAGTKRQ
Description: Cellular transwell monolayer efflux assay in MDCK cells transfected with TREx-PgP. The data set is classed as cell-based. The method, then: A third type of efflux transporter assay is the cellular transwell monolayer efflux assay. […] The cells form a polarized monolayer. The transwell dishes have apical and basolateral chambers that are separated by the filter membrane on which the polarized monolayer is situated. Assays are performed by placing a test compound in either the apical or basolateral chamber, followed by sampling the opposite chamber after a predetermined period of time such as 60-120 minutes and measuring the amount of the test compound. The test compound can be measured by methods such as radiolabel detection or LC-MS-MS analysis. Assays are performed in the presence and absence of an efflux transporter inhibitor or competitor. Efflux transporter inhibitors or competitors increase apical to basolateral transport and decrease basolateral to apical transport of compounds that are efflux transporter substrates. Apparent permeability (Papp) of test compounds is measured. […] Test compounds that generate ratios between 1.5 and 2.0 require additional testing to determine if they are efflux transporter substrates.
MDCK cells transfected with the tetracycline-inducible TREx-PgP expression vector were seeded on polycarbonate filter membranes in transwell dishes and grown for 3-5 days, yielding a polarized monolayer with tight junctions between cells. […] The left set of bars depicts apical to basolateral transport, while the right set of bars depicts basolateral to apical transport.

Setting [5] is: 2.5 nM ^3H-vinblastine, in the presence of 250 μM verapamil versus absence (FIG. 6).

With `C[C@]12CC[C@@H]3c4ccc(OS(=O)(=O)O)cc4CC[C@H]3[C@@H]1CCC2=O` [Estrone-3-sulfate], the “^3H-estrone-3-sulfate uptake” value in data set [1] was “higher levels of ^3H-estrone-3-sulfate uptake than noninjected controls”. The “Reported Affinity for OATPB” value in data set [2] was 0.1 mM.

For the compound `O=C1OC(c2ccc(O)c(S(=O)(=O)O)c2)(c2ccc(O)c(S(=O)(=O)O)c2)c2c(Br)c(Br)c(Br)c(Br)c21` [Bromosulfophthalein], the “Reported Affinity for OATPB” value in data set [2] is listed as 0.04 mM.

For the compound `CCCCC[C@H](O)/C=C/[C@@H]1[C@@H](C/C=C\CCCC(=O)O)[C@@H](O)C[C@H]1O` [PGFα], the OATPB substrate status entry in data set [3] is listed as “is a substrate for the OATPB transporter”.

Turning to `CC[C@]1(O)C[C@@H]2CN(CCc3c([nH]c4ccccc34)[C@@](C(=O)OC)(c3cc4c(cc3OC)N(C)[C@H]3[C@@](O)(C(=O)OC)[C@H](OC(C)=O)[C@]5(CC)C=CCN6CC[C@]43[C@@H]65)C2)C1` [^3H-vinblastine], in data set [4] (setting [5]), the “Apical to basolateral transport” value is “strongly increased” and the “Basolateral to apical transport” value is “strongly decreased”. For the same compound, the PgP substrate status result in data set [4] (conclusion from the transwell assay with and without verapamil) was “is a substrate of PgP”.
